In article PMC6522510 (Nature Communications, 2019):
pEC50: −log10 of the molar value. Like-named read-outs stand apart in the source and are kept apart here.

How the values were obtained:
Assay in all cases: cells
Design in all cases: species or system AML cell lines (8); Secondary HTS, 10-point dose-response in triplicate, Cell Titer Glo viability, four-parameter fit EC50
[1] = test system: M07e; details: M-07e, read-out: M07e
[2] = test system: CMK; details: Homo sapiens, read-out: CMK
[3] = test system: ML-2; details: Homo sapiens, read-out: ML-2
[4] = test system: U937; details: Homo sapiens, read-out: U937
[5] = test system: CMS; details: read-out: CMS
[6] = test system: MV4-11; details: Homo sapiens, read-out: MV4-11
[7] = test system: CHRF288-11; details: read-out: CHRF288-11
[8] = test system: MOLM-13; details: Homo sapiens, read-out: MOLM-13

Row | Compound | pEC50 ([1]; 72 h) | pEC50 ([2]; CMK, 72 h) | pEC50 ([3]; ML-2, 72 h) | pEC50 ([4]; U-937, 72 h) | pEC50 ([5]; 72 h) | pEC50 ([6]; MV4-11, 72 h) | pEC50 ([7]; 72 h) | pEC50 ([8]; MOLM-13, 72 h) | pEC50 ([1]; 72 h cell viability) | pEC50 ([2]; 72 h cell viability) | pEC50 ([3]; 72 h cell viability) | pEC50 ([4]; U-937, 72 h cell viability) | pEC50 ([5]; 72 h cell viability) | pEC50 ([6]; 72 h cell viability) | pEC50 ([7]; 72 h cell viability) | pEC50 ([8]; 72 h cell viability)
1 | Cc1noc(-c2ccc(-c3ccc(CC(=O)O)cc3)cc2)c1NC(=O)O[C@H](C)c1ccccc1Cl [SJ000833864, AM-966] | < 5.00 | < 5.00 | < 5.00 | < 5.00 | < 5.00 | < 5.00 | < 5.00 | 7.74 |  |  |  |  |  |  |  | 
2 | C=CC(=O)Nc1cccc(Nc2nc(Nc3ccc(OCCOC)cc3)ncc2F)c1 [SJ000833882, CC-292 (AVL-292)] | 5.02 | 5.40 | < 5.00 | 5.32 | < 5.00 | < 5.00 | < 5.00 | < 5.00 |  |  |  |  |  |  |  | 
3 | CN(c1ncccc1CNc1nc(Nc2ccc3c(c2)CC(=O)N3)ncc1C(F)(F)F)S(C)(=O)=O [SJ000833883, PF-00562271] | 5.21 | 5.59 | 6.30 | 5.41 | < 5.00 | < 5.00 | < 5.00 | < 5.00 |  |  |  |  |  |  |  | 
4 | N#Cc1ccc(COC[C@H]2O[C@@H](n3c(NCc4ccc(Cl)c(Cl)c4)nc4c(N)ncnc43)[C@H](O)[C@@H]2O)cc1 [SJ000833885, VER-155008] | < 5.00 | < 5.00 | < 5.00 | < 5.00 | 5.23 | < 5.00 | < 5.00 | < 5.00 |  |  |  |  |  |  |  | 
5 | N[C@@H]1CCCN(c2c(/C=C3\SC(=O)NC3=O)cccc2-c2ccccc2)C1 [SJ000833889, AZD1208] | < 5.00 | < 5.00 | < 5.00 | < 5.00 | < 5.00 | < 5.00 | < 5.00 | < 5.00 |  |  |  |  |  |  |  | 
6 | O=c1cc(N2CCOCC2)oc2c(-c3cccc4c3sc3ccccc34)cccc12 [SJ000834137, NU 7441] | 6.52 | < 5.00 | < 5.00 | < 5.00 | < 5.00 | < 5.00 | < 5.00 | < 5.00 |  |  |  |  |  |  |  | 
7 | O=C(Nc1ncc([N+](=O)[O-])s1)c1ccc([N+](=O)[O-])c(Cl)c1 [SJ000834139, SM-7368] |  |  |  |  |  |  |  |  | < 5.00 | < 5.00 | < 5.00 | 5.17 | < 5.00 | < 5.00 | < 5.00 | < 5.00
8 | CCOC(=O)C1=C(C)NC2=C(C(=O)CC(C)(C)C2)C1c1ccc(-c2ccccc2)cc1 (stereo not shown) [SJ000834140, ITD-1] | < 5.00 | < 5.00 | < 5.00 | < 5.00 | < 5.00 | < 5.00 | < 5.00 | < 5.00 |  |  |  |  |  |  |  | 
9 | CCN1CCN(CC(=O)Nc2ccc(-c3cccc4c(=O)cc(N5CCOCC5)oc34)c3sc4ccccc4c23)CC1 [SJ000834141, KU-0060648] | 5.40 | 6.57 | 6.37 | 5.52 | 5.55 | < 5.00 | 6.11 | 6.33 |  |  |  |  |  |  |  | 
10 | Cc1ccc(NCCCc2ccccc2)c(N)c1 [SJ000834143, JSH-23] | < 5.00 | 5.06 | < 5.00 | < 5.00 | < 5.00 | < 5.00 | < 5.00 | < 5.00 |  |  |  |  |  |  |  | 
11 | O=C(Nc1cc(Cl)cc2c1[nH]c1cnccc12)c1cccnc1 [SJ000834145, PS-1145] | < 5.00 | < 5.00 | < 5.00 | < 5.00 | < 5.00 | < 5.00 | < 5.00 | < 5.00 |  |  |  |  |  |  |  | 
12 | c1ccc2c(-c3cnn4cc(-c5ccc(N6CCNCC6)cc5)cnc34)ccnc2c1 [SJ000834146, LDN-193189] | 6.21 | 5.96 | 6.74 | 6.72 | 6.28 | 6.72 | 6.44 | 6.72 |  |  |  |  |  |  |  | 
13 | CC(C)c1cccc(C(C)C)c1N1C(=O)c2ccc(O)cc2C1=O [SJ000834149, 5HPP-33] | < 5.00 | < 5.00 | 5.24 | 5.17 | 5.08 | < 5.00 | < 5.00 | < 5.00 |  |  |  |  |  |  |  | 
14 | c1ccc(-c2nn3c(c2-c2ccnc4cc(OCCN5CCOCC5)ccc24)CCC3)nc1 [SJ000834150, LY2109761] | < 5.00 | < 5.00 | < 5.00 | < 5.00 | < 5.00 | < 5.00 | < 5.00 | < 5.00 |  |  |  |  |  |  |  | 
